Measured values reported in paper PMC8745345, “Hydroxy Pentacyclic Triterpene Acid, Kaempferol, Inhibits the Human 5-Hydroxytryptamine Type 3A Receptor Activity” (International Journal of Molecular Sciences, 2022).
Where a chain is given by its changes, count along the chain named.

Experiments:
[1] = biological target: T1, human 5-HT3A receptor I180A mutant (Homo sapiens, UniProt P46098, V202A); experiment: Two-electrode voltage clamp, I5-HT inhibition, I180A mutant; type: cell-based
T1 sequence (P46098 24-478 V202A): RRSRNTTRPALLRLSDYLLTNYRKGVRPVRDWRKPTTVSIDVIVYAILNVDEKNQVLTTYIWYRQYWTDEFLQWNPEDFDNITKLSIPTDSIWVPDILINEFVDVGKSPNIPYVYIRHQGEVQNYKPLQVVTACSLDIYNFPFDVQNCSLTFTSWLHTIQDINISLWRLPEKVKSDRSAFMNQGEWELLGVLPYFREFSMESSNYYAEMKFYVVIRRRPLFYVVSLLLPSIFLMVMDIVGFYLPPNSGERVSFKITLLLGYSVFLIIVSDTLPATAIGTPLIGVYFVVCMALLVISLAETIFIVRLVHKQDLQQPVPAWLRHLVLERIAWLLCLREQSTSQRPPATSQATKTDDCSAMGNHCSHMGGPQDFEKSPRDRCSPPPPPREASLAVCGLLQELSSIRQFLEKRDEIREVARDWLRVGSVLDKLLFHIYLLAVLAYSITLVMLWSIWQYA
Description: Human 5-HT3A receptor cDNA was linearized using restriction enzyme XhoI. In vitro transcription was performed using an mMESSAGE mMACHINE T7 Transcription Kit (Thermo Fisher Scientific, Waltham, MA, USA). The final mRNA product was dissolved in 1X Diethyl Pyrocarbonate (RNase-free water) at a final concentration of 1 μg/μL and kept in a deep-freezer at −80 °C until used.
Xenopus oocytes were used in this study as cells for expression of human 5-HT3A receptor. All female frogs used in this experiment were obtained from the Korean Xenopus Resource Center for Research (KXRCR000001). Xenopus management followed the guideline of Chonnam National University institution guidelines (CNU IACUC-YB-2016-07, July 2016). Xenopus oocytes were extracted during ice incubation state and isolated as single oocytes using collagenase II (2 mg/mL) in OR2 buffer (82.5 mM NaCl, 2 mM KCl, 1 mM MgCl2, 5 mM HEPES, pH 7.4). Isolated oocytes were incubated with ND96 incubation buffer (96 mM NaCl, 2 mM KCl, 1 mM MgCl2, 1.8 mM CaCl2, 5 mM HEPES, 2.5 mM sodium pyruvate, and […], pH 7.4) at 18 °C until the experiment was performed. Human 5-HT3A receptor mRNA was injected into oocytes using a nanoinjector (Drummond Scientific, Broomall, PA, USA) with a mineral-filled 10 μL microdispenser (VWR, Piscataway, NJ, USA).
To confirm the KAE activity on the human 5-HT3A receptor, a two-electrode voltage clamp (OC-725C; Warner Instruments, Hamden, CT, USA) with a Digitata 1550A was used. For the experiment, induced-inward current was converted to digital data with pClamp 10 software (Axon Instruments, Union City, CA, USA). […]
The voltage relationship experiment for confirming the relationship between induce-inward current and voltage, the voltage was varied from −80 mV to +60 mV using a ramp protocol. […] All recording data were analyzed using Clampfit 9.0 (Molecular Devices, San Jose, CA, USA). […]
All presented experiments were performed at least three times for scientific verification. […] Induced-inward current data were analyzed with SigmaPlot 10.0 software (Systat Software, Inc., San Jose, CA, USA). […]

[2] = biological target: T2, human 5-HT3A receptor F199A mutant (Homo sapiens, UniProt P46098, F221A); experiment: Two-electrode voltage clamp, I5-HT inhibition, F199A mutant; type: cell-based; details: −80 mV
T2 sequence (P46098 24-478 F221A): T1 sequence (P46098 24-478 V202A) with A179V, F198A
Description: Xenopus oocytes were used in this study as cells for expression of human 5-HT3A receptor. All female frogs used in this experiment were obtained from the Korean Xenopus Resource Center for Research (KXRCR000001). […] Isolated oocytes were incubated with ND96 incubation buffer (96 mM NaCl, 2 mM KCl, 1 mM MgCl2, 1.8 mM CaCl2, 5 mM HEPES, 2.5 mM sodium pyruvate, and 50 mg/mL gentamycin, pH 7.4) at 18 °C until the experiment was performed. Human 5-HT3A receptor mRNA was injected into oocytes using a nanoinjector (Drummond Scientific, Broomall, PA, USA) with a mineral-filled 10 μL microdispenser (VWR, Piscataway, NJ, USA).
For the experiment, induced-inward current was converted to digital data with pClamp 10 software (Axon Instruments, Union City, CA, USA). All experiments were performed at room temperature using an oocyte clamp equipped with Digidata. The membrane holding potential was −80 mV.
The voltage relationship experiment for confirming the relationship between induce-inward current and voltage, the voltage was varied from −80 mV to +60 mV using a ramp protocol. Each microelectrode was filled with 3 M KCl having a resistance of 0.2 MΩ. […] The rate of application of the reagent was 2 mL per minute. All recording data were analyzed using Clampfit 9.0 (Molecular Devices, San Jose, CA, USA).
Point mutation was performed using Pfu DNA polymerase (Quikchange II Site-Directed Mutagenesis Kit). Chimeric primer design for PCR was performed under appropriate primer design guidelines. […]

O=c1c(O)c(-c2ccc(O)cc2)oc2cc(O)cc(O)c12 [KAE, kaempferol] was tested, and the IC50 [1] was 45.5 ± 12.9 µM, the “n (Hill coefficient)” value ([1]; I180A, −80 mV) was 1.8 ± 0.6 and the Emax ([1]; I180A, −80 mV, read-out: Vmax) was 89.5 ± 12.1%. For the same molecule, the “n (Hill coefficient)” value [2] was 1.4 ± 0.4, the IC50 ([2]; Table 1) was 21.5 ± 5.7 µM and the Vmax ([2]; Table 1) was 53.3 ± 10.4%.
